The values that follow come from publication doi:10.1101/2021.03.09.434688v1 (biorxiv, 2021).

In the assay the target is T1, PsnB (Plesiocystis pacifica, UniProt A6G4D7).
T1 sequence (A6G4D7 1-314): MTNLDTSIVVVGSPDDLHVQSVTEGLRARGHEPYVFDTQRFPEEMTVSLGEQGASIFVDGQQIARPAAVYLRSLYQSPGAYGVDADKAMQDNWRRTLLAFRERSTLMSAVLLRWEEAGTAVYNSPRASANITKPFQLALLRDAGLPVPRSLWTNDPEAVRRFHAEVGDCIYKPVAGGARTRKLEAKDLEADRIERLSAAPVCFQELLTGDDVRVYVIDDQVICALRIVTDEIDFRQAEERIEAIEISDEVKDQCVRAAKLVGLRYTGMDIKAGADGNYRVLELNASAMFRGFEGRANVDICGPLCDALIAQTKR
T1 sequence (A6GH40 14-38 partner): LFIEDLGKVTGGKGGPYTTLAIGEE
Briefly: X-ray crystal structure of the complex. It is filed as binding. Conditions: complex with minimal precursor PsnA2_14-38 and Mg; nucleotide 5 mM; ATP site.

For the compound `Nc1ncnc2c1ncn2[C@@H]1O[C@H](COP(=O)(O)OP(=O)(O)O)[C@@H](O)[C@H]1O` [ADP], the “X-ray crystal structure of the complex” value was “For PsnB-MP-ADP (7DRM)”. For the compound `Nc1ncnc2c1ncn2[C@@H]1O[C@H](COP(=O)(O)OP(=O)(O)NP(=O)(O)O)[C@@H](O)[C@H]1O` [AMPPNP], the “X-ray crystal structure of the complex” value is listed as “PsnB-MP-AMPPNP (7DRN)”.
